Drawing on PubChem BioAssay (NCI), this text covers GI50 and TGI for 37 molecules.

Where “and” joins values, the source holds several entries; their conditions need not be identical. Equal entries are not always repeated.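 Cultured in 96-well plates, cells were exposed to test compound for 48 hours across five concentrations. At the GI50, growth is halved. The concentration for full growth arrest is given as TGI.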

The subject of this test is MDA-MB-468 breast. The test is described as follows: NCI tumour cell line growth inhibition, 48 h.
Turning to `O=C1C(=O)c2c(ccc3ccccc23)-c2ccccc21`, the GI50 is 1560 nM and the TGI turned out to be 3.26 µM.
The corresponding values for `CN1CCN(Cc2ccc(NC(=O)c3cncc(C#Cc4cnc5ccc(NCCCO)nn45)c3)cc2C(F)(F)F)CC1` are 87 nM and 0.228 µM.
The corresponding values for `CC(=O)Nc1ccc(C(=O)COc2cccc(/C=C3\CCc4ccccc4C3=O)c2)cc1` are 3630 nM and over 100 µM.
Regarding `OCCn1c(-c2ccncc2)c(-c2ccc(F)cc2)c2ncccc21`, the GI50 is over 25000 nM and the TGI is over 25 µM.
As to `COc1cc2nccc(Oc3ccc(NC(=O)C4(C(=O)Nc5ccc(F)cc5)CC4)cc3)c2cc1OC`, the GI50 was > 10000 nM and 4350 nM; the TGI was > 10 µM and 64.5 µM.
Turning to `Oc1ccc(/C=N/Nc2nnc(N/N=C/c3ccc(O)cc3O)c3ccccc23)c(O)c1`, the GI50 was 355 nM and the TGI stood at 1.77 µM.
Regarding `c1csc(-c2[nH]nc3c2CCc2ccccc2-3)c1`, the GI50 was 175 nM and the TGI was 0.494 µM.
As for `Cc1cc(N(CCCl)CCCl)ccc1/C=N\NC(=O)c1cccnc1`, the GI50 is 1460 nM and the TGI was found to be 5.41 µM.
`CCc1c[nH]c2ncnc(N3CC[C@](N)(CNC(=O)c4ccc(F)cc4F)C3)c12`: the GI50 was 139 nM and the TGI came to 2.23 µM.
The corresponding values for `COc1ccc(S(=O)(=O)NCCCNc2nccc(-c3c(-c4ccc(F)cc4)nc4sccn34)n2)cc1` are 4300 nM and over 100 µM.
On to `O=C1COc2c(CCNCCN(C(=O)CCNCCc3ccc(Cl)c(Cl)c3)C3CCCCC3)ccc(O)c2N1`, for which the GI50 is 2770 nM and the TGI came out at 9.42 µM.
For the molecule `CC[C@@H](CO)Nc1ccc2ncc(C#Cc3cncc(C(=O)Nc4ccc(CN5CCN(C)CC5)c(C(F)(F)F)c4)c3)n2n1`, the GI50 was 77.9 nM and the TGI came out at 0.194 µM.
Take `CC(=O)OC1CCC2(C)C(=CCC3C4CC(CN5CC5)C(=O)C4(C)CCC32)C1` (centres undefined): the GI50 is 1680 nM and the TGI was 4.49 µM.
As for `O=C(Nc1cccc(C(F)(F)F)c1)Nc1ccc(OCc2nnc(-c3ccccc3)o2)c(F)c1`, the GI50 is 2570 nM and the TGI was determined as 13.9 µM.
`COc1ccc(Cl)cc1Nc1nc(C(F)(F)F)ccc1C(=O)N/N=C/c1ccc(Cl)cc1`: the GI50 was 3960 nM and the TGI is over 100 µM.
In the case of `C/C=C\C(=O)O[C@@H]1CC2O[C@@H]3C=C(C)C(=O)C[C@]3(C)[C@]1(C)[C@]21CO1`, the GI50 is 567 nM and the TGI came to 2.13 µM.
Consider `O=C(COC(=O)[C@H](C[Se][Se]C[C@H](NC(=O)c1ccc(Br)cc1F)C(=O)OCC(=O)c1ccc(F)cc1)NC(=O)c1ccc(Br)cc1F)c1ccc(F)cc1`, for which the GI50 was 580 nM and the TGI was 1.68 µM.
For `C/C(=N\NC(=O)c1ccncc1)c1ccccc1O`, in that order: 2040 nM and 9.06 µM.
For `O=C(c1ccccc1)c1ccc(N2C(=O)C3C4c5ccccc5C(/C=C/C(=O)c5ccccn5)(c5ccccc54)C3C2=O)cc1` (centres undefined), in that order: 2390 nM and 6.99 µM.
For `COc1cc(/C=C/C(=O)c2c(-c3ccc(Cl)cc3)nc3sc(C)nn23)cc(OC)c1OC`, the GI50 is 6470 nM and the TGI is over 100 µM.
For the molecule `COc1cc(/C=N/n2cnc3oc(-c4ccccc4)cc3c2=N)cc(CN2CCCCC2)c1O`, the GI50 is 1800 nM and the TGI is 3.65 µM.
For `COc1ccc(C[C@H](N)C(=O)N[C@@H]2[C@@H](CO)OC(n3cnc4c(N(C)C)ncnc43)[C@@H]2O)cc1` (some centres undefined), the GI50 was 134 nM and the TGI was determined as 0.678 µM.
In the case of `Nc1ccc(N)c2c1C(=O)c1cccc([N+](=O)[O-])c1C2=O`, the GI50 was 3410 nM and the TGI was over 56.8 µM.
As to `CCC(=C(c1ccc(OCCN(CC)CC)cc1)c1ccc(OCCN(CC)CC)cc1)c1ccc(Cl)cc1`, the GI50 was 535 nM and the TGI came out at 1.05 µM.
Consider `COc1cc(-c2nn(-c3cccc(NC(=O)c4cccc(C(F)(F)F)c4)c3)cc2-c2ccncc2)ccc1Cl`, for which the GI50 was 1320 nM and the TGI was 4.56 µM.
For `CCn1c(SC)nnc1-c1cc2c([nH]c3ccccc32)c(-c2cccc(O)c2)n1`, the GI50 is 598 nM and the TGI was found to be 8.22 µM.
Turning to `O=C(NCc1cccnc1)c1ccc([N+](=O)[O-])o1`, the GI50 was 5310 nM and the TGI is over 29 µM.
In the case of `CCNc1nc(-c2ccc(Cl)c(OC)c2)c(-c2ccnc(NCCNS(=O)(=O)c3ccc(Cl)cc3)n2)s1`, the GI50 was 1960 nM and the TGI amounted to 5.61 µM.
`COc1cc2c(cc1OCCCN1CCN(CCCn3c4ccccc4c4ccccc43)CC1)N=C[C@@H]1CCCN1C2=O`: the GI50 was 23.8 nM and the TGI worked out at 0.0677 µM.
Take `Cc1cccc(Cc2cnc(NC(=O)CCCOc3ccc(Cl)cc3)s2)c1`: the GI50 is 1740 nM and the TGI is over 100 µM.
Take `CN(C)C(=O)c1cc2cnc(Nc3ccc(N4CCNCC4)cn3)nc2n1C1CCCC1`: the GI50 is 13500 nM and the TGI was found to be 37.6 µM.
As for `Cc1c(-c2ccc(N3CCc4cccc(C(=O)Nc5nc6ccccc6s5)c4C3)nc2C(=O)O)cnn1CC12CC3CC(CC(C3)C1)C2`, the GI50 is 6580 nM and the TGI amounted to 26.5 µM.
Take `CS(=O)(=O)Nc1ccc(Nc2c3ccccc3nc3cc(Cl)ccc23)cc1`: the GI50 was 1990 nM and the TGI was 9.88 µM.
Take `Fc1ccc(-c2cc3nc(C(Cl)Cl)nc(-c4ccc(F)cc4)n3n2)cc1`: the GI50 was 242 nM and the TGI was found to be 1.08 µM.
Consider `CN1CCN(Cc2ccc(NC(=O)c3cncc(C#Cc4cnc5cccnn45)c3)cc2C(F)(F)F)CC1`, for which the GI50 was 1970 nM and the TGI was determined as 8.22 µM.
On to `Cn1c(=O)c(Oc2ccc(F)cc2F)cc2cnc(NC3CCC(O)CC3)nc21` (centres undefined), for which the GI50 was over 25000 nM and the TGI was over 25 µM.
For `O=C(Nc1cccc(C(F)(F)F)c1)Nc1cc(S(=O)(=O)NC2CC2)ccc1-c1ccsc1`, the GI50 is 3100 nM and the TGI was 13.8 µM.
